Test results from patent US20220031684A1, “PROPHYLACTIC EFFICACY OF SEROTONIN 4 RECEPTOR AGONISTS AGAINST STRESS” (THE TRUSTEES OF COLUMBIA UNIVERSITY IN THE CITY OF NEW YORK, priority 2019, published 2022).
Where a name gives a salt, the structure may show the parent alone.

Tests used:
BALB/cJRj mice [1] = assay: Elevated plus maze (EPM), acute anxiolytic-like effect; type: in vivo
Description: RS67333 (1.5 mg/kg, i.p.), diazepam (1.5 mg/kg, i.p.), fluoxetine (18 mg/kg, i.p.) were injected 45 min before testing in the Elevated Plus Maze (EPM), the Novelty Suppressed Feeding (NSF) or the Open Field (OF) in three independent cohorts of male BALB/cJRj mice.
To ensure the selectivity of the anxiolytic-like effects of RS67333, in a new cohort of male BALB/cJRj mice, GR125487 (1.0 mg/kg, i.p.) dissolved in 0.9% NaCl solution, was injected 15 minutes before RS67333 administration (1.5 mg/kg, i.p.). EPM or NSF occurred 45 min after RS67333 administration (A-S1). Behavioral consequences of the co-administration of GR125487+RS67333 were compared to RS67333 alone, diazepam (1.5 mg/kg, i.p.) fluoxetine (18 mg/kg, i.p.) and vehicle groups (0.9% saline solution, i.p.).
For mPFC drug infusion, two bilateral cannulae (75 μm-diameter silica capillary tubing inserted in 27G stainless steel catheter) were implanted in the mPFC [stereotaxic coordinates in mm from bregma: A=+2.10, L=±0.50, V=−2.60, A, anterior; L, lateral; and V, ventral, according to (A-S10)] under anesthesia (chloral hydrate, 400 mg/kg, i.p.). […] Diazepam (1.5 mg/kg) was used as a positive control.
In a new cohort of male BALB/cJRj mice, p-CPA was administered twice daily (at 0900 and 1700 h) for 3 consecutive days. RS67333 ([…]) and diazepam ([…]) were then intra-mPFC administered 24 h after the final p-CPA administration and behavioral test (EPM) occurred 45 minutes after local infusion.
The EPM is a widely used behavioral assay for rodents and it has been validated to assess the anti-anxiety effects of pharmacological agents (A-S11). This test was performed as described by (A-S1). The maze is a plus-cross-shaped apparatus, with two open arms and two arms closed by walls linked by a central platform 50 cm above the floor. Mice were individually put in the center of the maze facing an open arm and were allowed to explore the maze during 5 min for the behavioral consequences of an acute systemic administration or mPFC infusion and during 6 min for the optogenetic experiments. The time spent in and the numbers of entries into the open arms were used as an anxiety index. All parameters were measured using a videotracker (EPM3C, Bioseb, Vitrolles, France).

BALB/cJRj mice [2] = assay: Splash Test after single dose; type: in vivo; conditions: single systemic dose 1.5 mg/kg, 45 minutes before test
Description: Having shown that RS 67333 was provided with prophylactic properties, we subsequently sought to gain knowledge of this molecule in the long term, i.e. to find out whether the anxiolytic response brought about by RS 67333 is sustainable over time. In order to achieve this, the BALB/cJRj mice were systemically injected with a single dose of RS 67333 (1.5 mg/kg) or diazepam (1.5 mg/kg), 45 minutes before performing the Splash Test. The following day, the mice underwent the EPM without having received another dose of RS, and then at the open field 24 hours later, and, finally, to NSF 24 hours after the open field (FIG. 15A).

Row | SMILES | time and percent time spent in the open arms (EPM) vs vehicle (BALB/cJRj mice [1]; intra-mPFC infusion 45 min before testing, RS67333 0.5 pg/side (1 pg), diazepam 1.5 pg/side, HCl) | time and percent time spent in the open arms (EPM) vs vehicle (BALB/cJRj mice [1]; male BALB/cJRj, i.p. 45 min before testing, RS67333 1.5 mg/kg, diazepam 1.5 mg/kg) | grooming time (Splash Test) (BALB/cJRj mice [2]) | number of grooming episodes (Splash Test) (BALB/cJRj mice [2]) | ratio of ambulatory distance in the open arms divided by total distance (EPM) vs vehicle (BALB/cJRj mice [1]; i.p. 45 min before testing, RS67333 1.5 mg/kg, diazepam 1.5 mg/kg) | time and percent time spent in the open arms (EPM) vs vehicle (BALB/cJRj mice [1]; intra-mPFC infusion 45 min before testing, RS67333 0.5 pg/side (1 pg), diazepam 1.5 pg/side) | time and percent time spent in the open arms (EPM) vs vehicle (BALB/cJRj mice [1]; male BALB/cJRj, i.p. 45 min before testing, RS67333 1.5 mg/kg, diazepam 1.5 mg/kg, hydrochloride) | drug-induced increase in time, percent time in open arms and ratio open arms/total distance (EPM) in 5-HT-depleted p-CPA mice (BALB/cJRj mice [1]; p-CPA pre-treatment 3 days, intra-mPFC RS67333 0.5 pg/side or diazepam 1.5 pg/side)
1 | CCCCN1CCC(CCC(=O)c2cc(Cl)c(N)cc2OC)CC1.Cl [RS-67,333, 1-(4-amino-5-chloro-2-methoxyphenyl)-3-[1(n-butyl)-4-piperidinyl]-1-propanone HCl] | significantly increased time and percent time spent in the open arms | increased | increased the grooming time | without affecting the number of episodes |  |  |  | 
2 | CN1C(=O)CN=C(c2ccccc2)c2cc(Cl)ccc21 [diazepam, Diazepam hydrochloride] |  |  | not identify any effect in the Splash Test |  | significantly increased | increased time, percent time spent in the open arms | significantly increased time and percent time spent in the open arms | abolished
